Assay results taken from patent EP4810052A2, “HCRHR2 SELECTIVE POLYPEPTIDES” (Gubra A/S, priority 2023, dated 2026).
“Also recorded” adds a separate entry of the source. Read-outs that look alike come from different tables or passages of the source. Starred links: 1 amine or outer side, 2 acyl side, 3 side chain; linkers in the order of their positions; H or OH if unused. Non-standard residues stand in square brackets, D forms with d. Residues, ends and D or L forms follow the SMILES beside them. Groups on a side chain read outwards from the residue. *: point of attachment. C20 diacid = O=C(O)CCCCCCCCCCCCCCCCCCC(=O)*; γGlu = O=C(O)[C@H](CCC(=O)[*:2])N[*:1]; NMeI = CC[C@H](C)[C@H](NC)C(=O)O; AEEA = NCCOCCOCC(=O)O; Aib = CC(C)(N)C(=O)O

What was measured:
[1] = Thioflavin T fibril formation assay of purified peptides; type: physicochemical; set-up: key: Amyloid fibril formation detected by an increase in ThT fluorescence was denoted with "Yes"; samples without increasing ThT fluorescence hence not forming amyloid fibrils were denoted "No"
Method in brief: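 Fibril formation read as rising ThT emission at 480 nm (450 nm excitation), 4 µM ThT, over 96 h at 40°C with alternating 5-min rest and 700 rpm shaking cycles, in triplicate. Samples were 200 µM compound in 50 mM phosphate at various pH values, or co-formulated at 200 µM in semaglutide product at pH 7.4.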

[2] = Chemical stability of purified peptides (RP-UHPLC main peak purity loss); type: physicochemical; settings: for Purity loss (RP-UPLC analysis) T28-T0 (%): 28 days
Method in brief: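 Purity loss is the drop in RP-UHPLC main-peak area fraction (215 nm detection, C8 column at 50 °C) from time zero to day 14 and/or day 28 at 40 °C. Samples held roughly 1.0 mg/ml peptide in 50 mM phosphate, pH 7.5, with other pH targets also tested.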

PK in mice = type: in vivo; set-up: T½ / MRT: unit: h; settings: for half-life: read-out: T½ (converted)
Method in brief: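 Male NMRI/RjHan lean mice, about 8 weeks old after acclimatization, got one peptide IV and another SC at 15 or 50 nmol/kg. Sparse plasma sampling (3 mice per timepoint) ran from 0.17 to 96 h post-dose. LC-MS/MS quantified plasma levels, with parameters from non-compartmental analysis.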

[3] = Body mass and body fat content in mouse model of diet-induced obesity (DIO); type: in vivo; settings: DIO mice; for Blood HbA1c / M. Gastrocnemius / M. Soleus / Body weight at termination / Fat mass change from baseline / Lean mass change from baseline / Relative body weight change at termination: Table 17 study; for Body weight at termination / Fat mass change from baseline / Lean mass change from baseline / Relative body weight change at termination: ± SEM
Protocol: SEQ ID NO: 3, SEQ ID NO: 6, SEQ ID NO: 238, SEQ ID NO: 16 and SEQ ID NO: 215 were assessed for their ability to reduce body mass and body fat content in a mouse model of diet-induced obesity (DIO).
Male C57BL/6JRj mice were obtained from JanVier (JanVier Labs, France) at 5 weeks of age. The animals were group-housed during obesity induction and then single housed 2 weeks prior to study start. They were housed under a 12/12 h dark-light cycle, light off at 3 PM. Room temperature was controlled to 22°C ± 1°C, with 60 % ± 20% humidity. For 22-23 weeks prior to treatment start and throughout the study, the animals had ad libitum access to high-fat diet (60% kcal fat, D12492, Research Diets) and tap water.
The animals were randomized according to lean mass (EchoMRI) and body weight. Animals were dosed subcutaneously […] for 30-32 days. In study 1, the animals were dosed with vehicle or SEQ ID NO: 3 (10, 30, 60 or 100 nmol/kg). In study 2, the animals were dosed with vehicle or SEQ ID NO: 6 (10 or 30 nmol/kg), SEQ ID NO: 238 (10 or 30 nmol/kg), SEQ ID NO: 16 (10 or 30 nmol/kg), SEQ ID NO: 215 (10 or 30 nmol/kg) or SEQ ID NO: 3 (30 nmol/kg).
Body weight and food intake were recorded daily until day 28 and body composition evaluated on day 26 using EchoMRI. At termination, blood for HbA1c analyses were collected and M. gastrocnemius and M. soleus were weighed.
Statistical significance was evaluated using One-way analysis of variance with Dunnett's multiple comparison test. P < 0.05 was considered statistically significant.

[4] = male, NMRI/RjHan, in vivo, iv, Mouse, 15 nmol/kg i.v.
[5] = male, NMRI/RjHan, in vivo, sc, Mouse, 15 nmol/kg s.c.

Structure (SMILES): CC[C@H](C)[C@H](NC)C(=O)N[C@H](C(=O)N[C@@H](CC(C)C)C(=O)N[C@@H](CO)C(=O)N[C@@H](CC(C)C)C(=O)N[C@@H](CC(=O)O)C(=O)N[C@H](C(=O)N1CCC[C@H]1C(=O)N[C@H](C(=O)NCC(=O)N[C@@H](CC(C)C)C(=O)N[C@@H](CC(C)C)C(=O)N[C@@H](CCC(N)=O)C(=O)N[C@H](C(=O)N[C@@H](CC(C)C)C(=O)N[C@@H](CC(C)C)C(=O)N[C@@H](CCC(=O)O)C(=O)N[C@@H](CCC(N)=O)C(=O)N[C@@H](C)C(=O)N[C@@H](CCCNC(=N)N)C(=O)N[C@@H](C)C(=O)N[C@@H](CCCNC(=N)N)C(=O)N[C@@H](C)C(=O)N[C@@H](C)C(=O)N[C@@H](CCCNC(=N)N)C(=O)N[C@@H](CCC(=O)O)C(=O)N[C@@H](CCC(N)=O)C(=O)N[C@@H](C)C(=O)N[C@@H](CCCCNC(=O)COCCOCCNC(=O)COCCOCCNC(=O)CC[C@H](NC(=O)CC[C@H](NC(=O)CCCCCCCCCCCCCCCCCCC(=O)O)C(=O)O)C(=O)O)C(=O)N[C@H](C(=O)N[C@@H](CC(N)=O)C(=O)NC(C)(C)C(=O)N[C@@H](CCC(=O)O)C(=O)N[C@H](C(=O)N[C@@H](CC(C)C)C(=O)N[C@@H](C)C(=O)N[C@@H](CCC(=O)O)C(=O)N[C@H](C(N)=O)C(C)C)[C@@H](C)CC)[C@@H](C)O)[C@@H](C)CC)[C@@H](C)CC)C(C)C)C(C)C [SEQ ID NO: 16] (H-[NMeI]VLSLDVPIGLLQILLEQARARAAREQAK([AEEA-AEEA-γGlu-γGlu-C20 diacid])TN[Aib]EILAEV-NH2)
- Amyloid fibril formation + semaglutide (Ozempic®), pH 7.4 ([1]; 200 µM compound dissolved in semaglutide drug product, pH 7.4, listed as None = drug product alone): No
- Amyloid fibril formation pH 7.0 ([1]; 200 µM in 50 mM phosphate buffer, pH 7.0): No
- Amyloid fibril formation pH 7.5 ([1]; 200 µM in 50 mM phosphate buffer, pH 7.5): No
- Amyloid fibril formation pH 8.0 ([1]; 200 µM in 50 mM phosphate buffer, pH 8.0): No
- Fibrillation (pH 7.5) ([1]; pH 7.5, ThT assay): No
- Purity loss (RP-UPLC analysis) T14-T0 (%) ([2]; pH 7.0, 40°C, 14 days): -0.6%
- Purity loss (RP-UPLC analysis) T28-T0 (%) ([2]; pH 7.0, 40°C): -1.1%
- Purity loss (RP-UPLC analysis) T14-T0 (%) ([2]; pH 7.5, 40°C, 14 days): -0.1%
- Chemical stability at pH 7.5 after 14 days at 40°C (% degradation) ([2]; pH 7.5, 40°C, 14 days, first value of cell): -0.6 / %
- Purity loss (RP-UPLC analysis) T28-T0 (%) ([2]; pH 7.5, 40°C): -0.3%
- Purity loss (RP-UPLC analysis) T14-T0 (%) ([2]; pH 8.0, 40°C, 14 days): -0.5%
- Purity loss (RP-UPLC analysis) T28-T0 (%) ([2]; pH 8.0, 40°C): -1.1%
- MRT (PK in mice; Mouse): 21.5
- T½ (PK in mice; Mouse): 15.9
- bioavailability (PK in mice; male, NMRI, mouse, in vivo, sc): 62%
- clearance (PK in mice; [4]): 3.7 mL/h/kg
- half-life (PK in mice; [4]): 15.9 h
- Cmax (PK in mice; [5]): 60 nM
- Tmax (PK in mice; [5]): 6 h
- half-life (PK in mice; [5]): 14.8 h
- relative body weight ([3]; 28 days, compared to vehicle): reduce body weight; also recorded: prolonged dose-dependent reduction
- Blood HbA1c ([3]; 10 nmol/kg): 4.4 ± 0.1%
- M. Gastrocnemius ([3]; 10 nmol/kg): 0.19 ± 0.003 g
- M. Soleus ([3]; 10 nmol/kg): 0.013 ± 0.0004 g
- Body weight at termination ([3]; 10 nmol/kg): 44 ± 1.1 g
- Fat mass change from baseline ([3]; 10 nmol/kg): -5.6 ± 0.5 g
- Lean mass change from baseline ([3]; 10 nmol/kg): 0.6 ± 0.3 g
- Relative body weight change at termination ([3]; 10 nmol/kg): 91.1 ± 1.2 %
- Blood HbA1c ([3]; 30 nmol/kg): 4.1 ± 0.1 %
- M. Gastrocnemius ([3]; 30 nmol/kg): 0.19 ± 0.002 g
- M. Soleus ([3]; 30 nmol/kg): 0.013 ± 0.0009 g
- Body weight at termination ([3]; 30 nmol/kg): 38.3 ± 0.9 g
- Fat mass change from baseline ([3]; 30 nmol/kg): -10.5 ± 0.6 g
- Lean mass change from baseline ([3]; 30 nmol/kg): -0.6 ± 0.3 g
- Relative body weight change at termination ([3]; 30 nmol/kg): 79.9 ± 1.4 %
